Laboratory results as given in patent US20110280849A1, “TUMOR SUPPRESSION USING HUMAN PLACENTA-DERIVED INTERMEDIATE NATURAL KILLER CELLS AND IMMUNOMODULATORY COMPOUNDS” (Anthrogenesis Corporation, priority 2010, published 2011).

Tests used:
NK cells = test: Flow cytometry of GZMB-positive NK cells after pomalidomide; assay type: cell-based, human
cultured PINK cells = test: qRT-PCR gene expression in lenalidomide- or pomalidomide-treated cultured PINK cells
Source text: Quantitative real-time (qRT-PCR) analysis. Isolated RNA can then be used for cDNA synthesis using TAQMAN® Reverse Transcription Reagents (Applied Biosystems, Cat #N8080234) followed by real-time PCR analysis by the 7900HT Fast Real-Time PCR System using Human Immune Array (Applied Biosystems, Cat #4370573) and Human MicroRNA Array (Applied Biosystems, Cat #4384792).
The paired t-test is used to determine if fold changes are equal in lenalidomide-treated and -untreated samples. […] The paired t-test is used to determine if fold changes are equal in treated and untreated samples.

Nc1cccc2c1C(=O)N(C1CCC(=O)NC1=O)C2=O (racemic) [pomalidomide, 4-amino-2-[(3RS)-2,6-dioxopiperidin-3-yl)-1H-isoindole-1,3(2H)-dione]
increase in percentage of GZMB-positive NK cells (NK cells): 25%
increase in granzyme B (GZMB) gene expression (cultured PINK cells): 60%±1.7%
